For assay [1], the target named is Ba/F3 EGFR D770_N771insSVD cells (Homo sapiens, UniProt P00533, DUP768-770, cells depend on it). As to the kind of experiment: Inhibition of cell proliferation, CTG method, Ba/F3 EGFR D770_N771insSVD. The format is cell-based. Conditions: 72 hours, read-out: Ba/F3 EGFR D770_N771insSVD IC50. The source says:
(§1) The present application examined the in vitro anti-proliferative activity of the compounds of the present disclosure against in vitro cultured HCC-827, Ba/F3-EGFR-VIII and Ba/F3 EGFR D770_N771insSVD cell lines by CTG method.
(§2) Reagents and consumables: RPMI1640 (ThermoFisher, Cat. No. C11875500BT); DMEM (ThermoFisher, C11995500BT); fetal bovine serum (Hyclone, Cat. No. SV30087.03); 0.25% trypsin-EDTA (ThermoFisher, Cat. No. 25200072); penicillin-streptomycin (Hyclone, Cat. No. SV30010); DMSO (Life Science, Cat. No. 0231-500ML); CTG assay kit (Promega, Cat. No. G9243); 96-well plate (Corning, Cat. No. 3599); multifunctional plate reader (Perkin Elmer, Cat. No. Envision)
(§3) Cell lines: HCC-827 (from ATCC), Ba/F3-EGFR-VIII and Ba/F3 EGFR D770_N771insSVD (all from KYinno Biotechnology (Beijing) Co., Ltd.); all of the above cells were cultured with RPMI1640 medium containing 10% fetal bovine serum, 100 U/mL penicillin, and 100 μg/mL streptomycin in the culture process, and HCC-827 was cultured with DMEM medium containing 10% fetal bovine serum, 100 U/mL penicillin, and 100 μg/mL streptomycin.
(§4) • 1. The assay compound was dissolved with DMSO to form a stock solution and a gradient dilution was performed, followed by dilution with the corresponding medium to obtain a solution with 5-fold working concentration. • 2. Cells in logarithmic growth phase were adjusted to specific cell densities by dilution with culture medium, and 80 μL of cell suspension was added to a 96-well plate, such that plating densities of cells of HCC-827, Ba/F3-EGFR-VIII and Ba/F3 EGFR D770_N771insSVD were all 3000 cells/well. The cells of Ba/F3-EGFR-VIII and Ba/F3 EGFR D770_N771insSVD were used directly in the next step (treatment with compound), whereas the HCC-827 needed to be cultured overnight in a 37° C., 5% carbon dioxide gas incubator to adhere to the wall, and then treated with compounds. • 3. 20 μL of compound solution was added to each well of the 96-well plate that had been inoculated with cells. The highest concentration of the assayed compound was 10 μM, 4-fold serial dilution, a total of 9 concentrations, and duplicate wells. A control group without compound was also set up. • 4. The cells were cultured for another 72 hours, and then cell viability was detected by CTG assay kit. Signal values were read with a multifunctional plate reader (Perkin Elmer). GraphPad Prism software was used to create a dose-response curve and IC50 was calculated.

For the next assay, the target named is Ba/F3-EGFR-VIII cells (Homo sapiens, UniProt P00533, DELINS30-297G, cells depend on it). As to the kind of experiment: Inhibition of cell proliferation, CTG method, Ba/F3-EGFR-VIII. The class given is cell-based. Particulars: 72 hours, read-out: Ba/F3 EGFRvIII IC50.
Description: as §1, §2, §3, §4

The target of the next assay is T1, EGFR^WT kinase (Homo sapiens, UniProt P00533).
T1 construct: purchased Carna Biosciences 08-115
As to the kind of experiment: EGFR^WT kinase assay (ULight peptide / Eu-PT66 antibody detection). The format is biochemical. The source says:
(§5) Reagents and consumables: ULight™-labeled Ploy GT Peptide (Perkin Elmer, Cat. No. TRF-0100-M); ULight™-labeled JAK-1 (Try1023) Peptide (Perkin Elmer, Cat. No. TRF-0121-M); Eu-W1024-labeled Anti-Phosphotyrosine Antibody (PT66) (Perkin Elmer, Cat. No. AD0068); 10×Detection Buffer (Perkin Elmer, Cat. No. CR97-100); HER2 Kinase (Carna Biosciences, Cat. No. 08-016); EGFR kinase (Carna Biosciences, Cat. No. 08-115); HEPES (GIBCO, Cat. No. 15630-080); EGTA (Sigma, Cat. No. 03777-10G); EDTA (Sigma, Cat. No. EDS-100G); MgCl2 (Sigma, Cat. No. 63069-100ML); DTT (Sigma, Cat. No. 43816-10ML); Tween-20 (Sigma, Cat. No. P7949-100ML); DMSO (Life Science, Cat. No. 0231-500ML); 384-well plates (Perkin Elmer, Cat. No. 607290); multifunctional plate reader (Perkin Elmer, Cat. No. Envision)
(§6) Preparation of compound solution: The assay compound was dissolved in DMSO to form a 10 mM stock solution. Prior to use, the compound was diluted to 0.25 mM in DMSO (100 times the final concentration of the diluent) and then subjected to a 3-fold concentration gradient dilution to obtain a total of 11 concentrations. The solution was diluted with buffer to a diluent with 4× the final concentration when the drug was added.
(§7) EGFR^WT kinase assay: buffer was prepared, and 3.48 nM 4× EGFR kinase solution, 600 μM 4× ATP solution, and 400 nM 4×ULight™-labeled JAK-1 (Try1023) Peptide substrate solution was prepared using the buffer. After the preparation was completed, the enzyme was mixed with different concentrations of compounds pre-prepared by dilution, and the mixture was left to stand at room temperature for 5 min. Each concentration was performed in duplicate. The corresponding substrate and ATP were added and the mixture was reacted at room temperature for 120 minutes (with negative and positive controls). After completion of the reaction, PT66 detection antibody was added. The mixture was incubated at room temperature for 60 minutes, and then detected by Envision.
(§8) Data Calculation: the reading of well and inhibition rate were calculated using Excel, wherein reading of well=10000*(well EU665 value)/(well EU615 value), and inhibition rate=[(reading of positive control well−reading of assay well)/(reading of positive control well−reading of negative control well)]*100%. Compound concentrations and corresponding inhibition rates were input into GraphPad Prism for processing to calculate IC50 values.

Another assay concerns the target T2, HER2 kinase (Homo sapiens, UniProt P04626).
T2 construct: purchased Carna Biosciences 08-016
As to the kind of experiment: HER2 kinase assay (ULight peptide / Eu-PT66 antibody detection). The class given is biochemical.
Description: as §5, §6
as §7, with “HER2 kinase” for “EGFR^WT kinase”, “and 40” for “and 3.48”, “4× HER2” for “4× EGFR”, “solution, 40” for “solution, 600”, “4×ULight™-labeled Ploy GT” for “4×ULight™-labeled JAK-1 (Try1023)”, “solution were” for “solution was”
as §8

In a further assay the test system is HCC-827 cells. As to the kind of experiment: Inhibition of cell proliferation, CTG method, HCC-827. The format is cell-based. Particulars: Homo sapiens, HCC827, 72 hours.
Description: as §1, §2, §3, §4

As usually defined, the IC50 is the concentration that inhibits the measured activity by half. Low values mean greater potency in that assay, high ones weaker potency in that assay.

Some results are limits rather than exact numbers.

T1 sequence (P00533 25-1210): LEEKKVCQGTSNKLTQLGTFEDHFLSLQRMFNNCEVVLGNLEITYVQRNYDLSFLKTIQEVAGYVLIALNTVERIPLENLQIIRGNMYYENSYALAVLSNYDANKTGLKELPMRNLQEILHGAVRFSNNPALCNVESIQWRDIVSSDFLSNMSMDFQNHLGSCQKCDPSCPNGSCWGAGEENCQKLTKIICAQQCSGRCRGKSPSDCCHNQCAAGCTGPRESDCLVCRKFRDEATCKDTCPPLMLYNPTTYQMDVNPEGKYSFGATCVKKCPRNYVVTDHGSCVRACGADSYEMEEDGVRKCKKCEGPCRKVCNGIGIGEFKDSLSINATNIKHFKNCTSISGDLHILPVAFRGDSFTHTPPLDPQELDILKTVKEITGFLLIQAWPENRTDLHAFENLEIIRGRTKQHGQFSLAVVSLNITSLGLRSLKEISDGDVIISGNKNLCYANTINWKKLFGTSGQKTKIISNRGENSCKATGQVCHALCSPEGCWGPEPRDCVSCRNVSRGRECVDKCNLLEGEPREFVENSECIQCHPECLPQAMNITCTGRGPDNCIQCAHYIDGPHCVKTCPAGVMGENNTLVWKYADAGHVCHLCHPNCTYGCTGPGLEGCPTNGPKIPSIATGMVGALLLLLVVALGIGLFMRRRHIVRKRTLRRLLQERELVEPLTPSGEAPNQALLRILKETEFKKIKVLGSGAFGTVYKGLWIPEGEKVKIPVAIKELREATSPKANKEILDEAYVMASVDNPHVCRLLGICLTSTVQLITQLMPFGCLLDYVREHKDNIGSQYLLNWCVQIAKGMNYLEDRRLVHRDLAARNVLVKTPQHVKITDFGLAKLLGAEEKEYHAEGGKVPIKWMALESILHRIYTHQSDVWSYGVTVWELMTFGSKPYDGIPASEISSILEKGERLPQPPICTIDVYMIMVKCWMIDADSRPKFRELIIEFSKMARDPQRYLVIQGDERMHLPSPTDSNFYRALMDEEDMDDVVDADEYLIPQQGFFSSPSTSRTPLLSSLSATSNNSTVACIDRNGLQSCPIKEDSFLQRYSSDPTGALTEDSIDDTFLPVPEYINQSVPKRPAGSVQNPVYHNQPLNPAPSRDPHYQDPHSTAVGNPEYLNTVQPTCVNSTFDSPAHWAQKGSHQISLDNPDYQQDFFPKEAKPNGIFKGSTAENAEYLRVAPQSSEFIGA
T2 sequence (P04626 23-1255): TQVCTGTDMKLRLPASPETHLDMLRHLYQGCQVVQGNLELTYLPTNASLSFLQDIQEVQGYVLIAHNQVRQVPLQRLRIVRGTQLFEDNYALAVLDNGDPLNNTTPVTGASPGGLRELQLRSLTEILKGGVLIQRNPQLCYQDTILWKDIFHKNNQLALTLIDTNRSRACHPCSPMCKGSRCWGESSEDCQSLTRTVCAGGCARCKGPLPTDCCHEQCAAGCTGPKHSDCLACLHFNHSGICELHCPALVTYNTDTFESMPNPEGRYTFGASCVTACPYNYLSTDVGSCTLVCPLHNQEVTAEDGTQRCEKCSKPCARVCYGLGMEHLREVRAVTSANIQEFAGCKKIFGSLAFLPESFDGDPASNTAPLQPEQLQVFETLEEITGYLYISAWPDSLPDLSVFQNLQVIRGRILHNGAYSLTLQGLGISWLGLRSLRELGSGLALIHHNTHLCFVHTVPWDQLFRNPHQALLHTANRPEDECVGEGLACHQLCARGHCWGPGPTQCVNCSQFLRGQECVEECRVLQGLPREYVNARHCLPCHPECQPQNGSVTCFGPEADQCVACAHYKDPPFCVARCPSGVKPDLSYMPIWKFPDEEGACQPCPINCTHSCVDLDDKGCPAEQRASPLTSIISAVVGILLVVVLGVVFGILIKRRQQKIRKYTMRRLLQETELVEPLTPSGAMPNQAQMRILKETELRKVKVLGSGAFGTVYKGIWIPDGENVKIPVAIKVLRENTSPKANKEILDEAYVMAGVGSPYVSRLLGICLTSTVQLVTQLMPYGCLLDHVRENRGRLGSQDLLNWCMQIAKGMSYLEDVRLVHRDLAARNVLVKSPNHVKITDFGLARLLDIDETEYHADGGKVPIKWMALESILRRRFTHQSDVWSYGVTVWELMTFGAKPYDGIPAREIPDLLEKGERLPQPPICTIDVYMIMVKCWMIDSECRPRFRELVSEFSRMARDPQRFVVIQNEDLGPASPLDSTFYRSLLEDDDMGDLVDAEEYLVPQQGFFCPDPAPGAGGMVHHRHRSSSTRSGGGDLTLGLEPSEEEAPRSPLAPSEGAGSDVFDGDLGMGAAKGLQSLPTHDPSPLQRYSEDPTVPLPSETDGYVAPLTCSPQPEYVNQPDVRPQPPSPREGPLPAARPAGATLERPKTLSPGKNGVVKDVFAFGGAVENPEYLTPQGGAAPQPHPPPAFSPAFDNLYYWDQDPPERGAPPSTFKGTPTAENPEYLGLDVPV
Ba/F3-EGFR-VIII cells, sequence (P00533 with tags, fused parts or gaps DELINS30-297G): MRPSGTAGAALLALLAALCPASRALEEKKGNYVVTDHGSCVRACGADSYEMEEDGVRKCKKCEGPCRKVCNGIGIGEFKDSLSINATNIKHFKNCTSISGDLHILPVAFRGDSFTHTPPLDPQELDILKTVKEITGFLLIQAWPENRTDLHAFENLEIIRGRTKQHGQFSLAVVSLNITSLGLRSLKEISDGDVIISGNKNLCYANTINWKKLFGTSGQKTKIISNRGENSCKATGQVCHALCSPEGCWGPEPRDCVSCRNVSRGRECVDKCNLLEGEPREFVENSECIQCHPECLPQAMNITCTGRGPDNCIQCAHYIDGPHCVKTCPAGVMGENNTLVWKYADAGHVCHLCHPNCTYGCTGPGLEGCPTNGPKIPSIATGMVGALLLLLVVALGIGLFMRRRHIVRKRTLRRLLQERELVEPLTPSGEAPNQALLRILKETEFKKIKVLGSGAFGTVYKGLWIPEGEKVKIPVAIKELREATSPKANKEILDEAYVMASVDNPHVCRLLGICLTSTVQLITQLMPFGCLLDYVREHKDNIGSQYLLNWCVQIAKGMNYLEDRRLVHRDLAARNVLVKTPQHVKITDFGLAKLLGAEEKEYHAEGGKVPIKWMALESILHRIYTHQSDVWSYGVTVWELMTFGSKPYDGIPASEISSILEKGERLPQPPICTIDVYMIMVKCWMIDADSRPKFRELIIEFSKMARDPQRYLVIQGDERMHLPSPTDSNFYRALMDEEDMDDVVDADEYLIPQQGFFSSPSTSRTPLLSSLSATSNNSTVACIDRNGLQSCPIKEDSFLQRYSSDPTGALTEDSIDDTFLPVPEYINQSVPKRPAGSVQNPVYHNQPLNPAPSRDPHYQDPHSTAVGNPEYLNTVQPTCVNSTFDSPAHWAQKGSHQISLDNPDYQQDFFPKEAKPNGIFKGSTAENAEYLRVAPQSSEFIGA
Ba/F3 EGFR D770_N771insSVD cells, sequence (P00533 with tags, fused parts or gaps DUP768-770): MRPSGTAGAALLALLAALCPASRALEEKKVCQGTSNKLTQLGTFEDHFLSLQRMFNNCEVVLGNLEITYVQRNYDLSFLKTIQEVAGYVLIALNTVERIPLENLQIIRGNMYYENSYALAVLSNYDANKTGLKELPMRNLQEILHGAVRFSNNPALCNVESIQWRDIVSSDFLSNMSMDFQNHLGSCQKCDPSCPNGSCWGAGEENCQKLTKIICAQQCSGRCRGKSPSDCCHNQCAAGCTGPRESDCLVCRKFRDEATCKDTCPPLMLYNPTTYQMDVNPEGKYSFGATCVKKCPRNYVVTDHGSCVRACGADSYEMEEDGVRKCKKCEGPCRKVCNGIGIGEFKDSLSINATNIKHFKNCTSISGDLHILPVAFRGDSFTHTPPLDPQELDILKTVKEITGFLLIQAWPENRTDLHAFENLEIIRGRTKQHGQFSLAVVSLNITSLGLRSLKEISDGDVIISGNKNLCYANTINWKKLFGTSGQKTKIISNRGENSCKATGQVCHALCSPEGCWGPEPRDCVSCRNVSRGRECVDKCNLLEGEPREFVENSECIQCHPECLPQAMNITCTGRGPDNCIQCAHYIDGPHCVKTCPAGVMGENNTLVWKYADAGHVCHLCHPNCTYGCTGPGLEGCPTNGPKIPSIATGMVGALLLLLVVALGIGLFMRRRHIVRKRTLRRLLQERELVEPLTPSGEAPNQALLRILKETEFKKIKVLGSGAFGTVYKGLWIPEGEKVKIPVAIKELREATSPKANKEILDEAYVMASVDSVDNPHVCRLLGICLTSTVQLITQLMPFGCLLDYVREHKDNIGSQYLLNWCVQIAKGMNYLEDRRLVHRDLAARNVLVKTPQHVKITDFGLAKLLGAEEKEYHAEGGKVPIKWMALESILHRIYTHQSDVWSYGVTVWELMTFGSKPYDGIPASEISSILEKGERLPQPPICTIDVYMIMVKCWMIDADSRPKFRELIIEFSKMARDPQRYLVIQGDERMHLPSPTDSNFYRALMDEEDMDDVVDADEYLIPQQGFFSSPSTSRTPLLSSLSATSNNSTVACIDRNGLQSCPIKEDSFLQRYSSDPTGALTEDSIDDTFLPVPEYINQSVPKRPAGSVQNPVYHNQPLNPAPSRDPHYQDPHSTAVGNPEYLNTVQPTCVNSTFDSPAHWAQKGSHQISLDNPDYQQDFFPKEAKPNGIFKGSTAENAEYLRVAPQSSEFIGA

Take `COc1c(NC(=O)/C=C/CN(C)C2CC2)ccc2ncnc(Nc3cccc(Cl)c3F)c12` [Example 2, (E)-N-(4-((3-chloro-2-fluorophenyl)amino)-5-methoxyquinazolin-6-yl)-4-(cyclopropyl(methyl)amino)but-2-enamide]: the GI50 in assay [1] lay in the range of 50 to 500 nM; at Ba/F3-EGFR-VIII cells, 5 to 50 nM. In addition, the IC50 is 1 to 10 nM against EGFR^WT kinase, 100 to 1000 nM on HER2 kinase and not above 5 nM in the assay with HCC-827 cells.
On the same counts, the results for `COCCOc1c(NC(=O)/C=C/CN(C)C)ccc2ncnc(Nc3cccc(Cl)c3F)c12` [Example 3, (E)-N-(4-((3-chloro-2-fluorophenyl)amino)-5-(2-methoxyethoxy)quinazolin-6-yl)-4-(dimethylamino)but-2-enamide] are 50 to 500 nM, not above 5 nM, not above 1 nM, 10 to 100 nM and not above 5 nM.
As for `CN(C)C/C=C/C(=O)Nc1ccc2ncnc(Nc3cccc(Cl)c3F)c2c1OCCCS(C)(=O)=O` [Example 7, (E)-N-(4-((3-chloro-2-fluorophenyl)amino)-5-(3-(methylsulfonyl)propoxy)quinazolin-6-yl)-4-(dimethylamino)but-2-enamide], at Ba/F3-EGFR-VIII cells, the GI50 is 5 to 50 nM. For the same compound, the IC50 is not above 1 nM against EGFR^WT kinase, 100 to 1000 nM against HER2 kinase and not above 5 nM with HCC-827 cells.
`CSCCOc1c(NC(=O)/C=C/CN(C)C)ccc2ncnc(Nc3cccc(Cl)c3F)c12` [Example 12, (E)-N-(4-((3-chloro-2-fluorophenyl)amino)-5-(2-(methylthio)ethoxy)quinazolin-6-yl)-4-(dimethylamino)but-2-enamide]: the GI50 on Ba/F3-EGFR-VIII cells was 5 to 50 nM. In addition, the IC50 is not above 1 nM at EGFR^WT kinase, 10 to 100 nM on HER2 kinase and 5 to 50 nM in the assay with HCC-827 cells.
Consider `COc1c(NC(=O)/C=C/[C@H]2CCCN2C)ccc2ncnc(Nc3ccc(Cl)c(Cl)c3F)c12` [Example 20, (R,E)-N-(4-((3,4-dichloro-2-fluorophenyl)amino)-5-methoxyquinazolin-6-yl)-3-(1-methylpyrrolidin-2-yl)acrylamide], for which the GI50 in assay [1] was in the range of 50 to 500 nM. For the same compound, the IC50 at EGFR^WT kinase is not above 1 nM; against HER2 kinase, 1 to 10 nM; with HCC-827 cells, not above 5 nM.
On the same counts, the results for `CN(C)C/C=C/C(=O)Nc1ccc2ncnc(Nc3ccc(Cl)c(Cl)c3F)c2c1OCCO` [Example 21, (E)-N-(4-((3,4-dichloro-2-fluorophenyl)amino)-5-(2-hydroxyethoxy)quinazolin-6-yl)-4-(dimethylamino)but-2-enamide] are 5 to 50 nM, not above 1 nM, 10 to 100 nM and not above 5 nM.
For `CN1CCC[C@@H]1/C=C/C(=O)Nc1ccc2ncnc(Nc3ccc(Cl)c(Cl)c3F)c2c1OCCO` [Example 22, (R,E)-N-(4-((3,4-dichloro-2-fluorophenyl)amino)-5-(2-hydroxyethoxy)quinazolin-6-yl)-3-(1-methylpyrrolidin-2-yl)acrylamide], in assay [1], the GI50 lay within 5 to 50 nM. For the same compound, the IC50 at EGFR^WT kinase is not above 1 nM; against HER2 kinase, 1 to 10 nM; in the assay on HCC-827 cells it was not above 5 nM.
For the compound `COCCOc1c(NC(=O)/C=C/CN(C)C)ccc2ncnc(Nc3ccc(Cl)c(Cl)c3F)c12` [Example 23, (E)-N-(4-((3,4-dichloro-2-fluorophenyl)amino)-5-(2-methoxyethoxy)quinazolin-6-yl)-4-(dimethylamino)but-2-enamide], in assay [1], the GI50 was in the range of 50 to 500 nM. Besides, the values for the IC50 at EGFR^WT kinase, on HER2 kinase and with HCC-827 cells were not above 1 nM, 10 to 100 nM and not above 5 nM, respectively.
On the same counts, the results for `COCCOc1c(NC(=O)/C=C/[C@H]2CCCN2C)ccc2ncnc(Nc3ccc(Cl)c(Cl)c3F)c12` [Example 24, (R,E)-N-(4-((3,4-dichloro-2-fluorophenyl)amino)-5-(2-methoxyethoxy)quinazolin-6-yl)-3-(1-methylpyrrolidin-2-yl)acrylamide] are 50 to 500 nM, not above 1 nM, 10 to 100 nM and not above 5 nM.
